The record followed here is publication PMC9271048, “Probing strigolactone perception mechanisms with rationally designed small-molecule agonists stimulating germination of root parasitic weeds” (Nature Communications, 2022).

Read-outs that look alike come from different tables or passages of the source.

As usually defined, the IC50 is the concentration that gives 50% inhibition. Broadly, the EC50 is the midpoint of the concentration-response curve.

In one data set the target is T1, AtD14 (Arabidopsis thaliana, UniProt Q9SQR3).
T1 construct: His tag; made in house; host or cells: E. coli BL21
T1 sequence (Q9SQR3 1-267): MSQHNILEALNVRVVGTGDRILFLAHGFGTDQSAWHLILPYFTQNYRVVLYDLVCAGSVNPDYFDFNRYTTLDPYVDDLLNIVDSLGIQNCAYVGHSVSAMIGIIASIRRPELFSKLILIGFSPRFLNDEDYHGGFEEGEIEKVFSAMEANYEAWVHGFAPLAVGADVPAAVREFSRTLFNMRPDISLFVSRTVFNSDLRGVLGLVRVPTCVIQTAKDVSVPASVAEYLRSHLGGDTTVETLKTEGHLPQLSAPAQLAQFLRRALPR
Kind of data set: Competitive inhibition of AtD14 with YLG as substrate. Type of data set: biochemical. The procedure: The excitation and emission wavelengths of YLG are 480 and 520 nm, respectively. We used a fluorescence spectrophotometer (CARY Eclipse) to detect the fluorescence intensity change of YLG during the enzymatic hydrolysis assay process. All the testing compounds and YLG were dissolved in DMSO and prepared as stock solutions just before use. […] The changes of fluorescence at 520 nm of each well were recorded every 1 min for 30 min. Using the reaction mixture without adding enzyme and tested compounds as the background control. After subtracting the background hydrolysis, a linear fluorescence increase in 8 min was used for further inspection. The IC50 values were determined via fitting relative inhibition percentages with the varying concentrations of compounds in Microsoft Excel.

A further data set addresses ShHTL7 (Striga hermonthica, UniProt A0A0M3PNA2). Kind of data set: ShHTL7-hydrolysis reaction analysis (HPLC). Type of data set: biochemical. The note with it: 10 μM compound, 30 °C, 30 min; for relative percentage of hydrolysis by ShHTL7, source data average: Supplementary Figs. 11, 20a, 24a. The method, then:
Compounds 4a, (R)- and (S)-4a, 4g-i, and rac-GR24 were dissolved in DMSO and prepared as stock solution ([…]) just before use. A 200 μL of the reaction solution consisting of PBS buffer (pH 7.3), 10 μM samples, and 10 μg recombinant ShHTL7 or its mutants was incubated at 30 °C for 30 min; with the reaction solution (200 μL) containing PBS buffer (pH 7.3) and 10 μM samples as the blank control[40],[52]. Subsequently, the reaction was terminated by adding 200 μL of methanol, and then the reaction mixture was shaken for 10 s and centrifuged at 5310 × g for 60 s. The supernatant was filtered and the remaining amount of samples was analyzed by HPLC. The relative percentages of hydrolysis were obtained by using the amount of compounds in blank control as reference.
Supplementary Fig. 11. Hydrolysis of 4a, (R)-4a, (S)-4a, 4g-i, and rac-GR24 by ShHTL7 at 30 °C for 30 min. The remaining amounts of compounds in recombinant ShHTL7 protein and buffer solution were determined by HPLC analysis. The relative percentages of hydrolysis were calculated by using the amount of compounds in the buffer as reference. The error bar indicates SD (n = 3 biologically independent experiments).
(1 picture or pasted object on this page, not shown here)

Another data set deals with Striga hermonthica seeds. As to the kind of experiment: S. hermonthica seed germination assay. The class given is in vivo. To be noted: source data of Fig. 2d, average of 2 or 3; for EC50: Striga hermonthica, 48 h. The method, then: Two hundred mg of Striga hermonthica seeds were surface sterilized in 2% sodium hypochlorite containing 0.02% Tween-20 for 5 min, and then washed five times with sterile MilliQ water. The sterilized Striga seeds were spread on sterile glass fiber-filter papers (Whatman® GF/A, Sigma–Aldrich) in Petri dishes containing filter paper moistened with 3 mL sterile MilliQ water. The Petri dishes were incubated 6–8 days at 30 °C for preconditioning after which the seeds were dried in a laminar sterile air flow for 2 h. The germination bioassay was performed in 0.1% agarose and 0.1 ppm rac-GR24 was used as a positive control. Stocks of rac-GR24 and other compounds were prepared in acetone and diluted before use. Dried preconditioned seeds were added to the agarose containing the relevant compound, which was subsequently divided over three wells of a 12-well Cell Culture Treated Plates (Fisher Scientific, Landsmeer, the Netherlands). The plates were sealed and incubated in the dark at 30 °C for 2 days. The Striga germination rate in % (GR%) was calculated for each replicate using the formula: GR% = (Ngs/Nts) × 100, where Ngs is the number of germinated seeds per well and Nts is the total number of seeds per well. EC50 values of the compounds were calculated using http://www.ic50.tk/index.html.

A further data set relates to P. aegyptiaca seeds. Kind of data set: P. aegyptiaca seed germination assay. The note with it: for P. aegyptiaca seed germination activity, source data average: Supplementary Fig. 9b. Further details: P. aegyptiaca germination EC50 values, source data average: unit not given here; P. aegyptiaca seed germination activity, source data average: unit of the concentration uncertain. The class given is in vivo, Phelipanche aegyptiaca. The procedure: P. aegyptiaca seeds were harvested from Xinjiang province, China in 2017. The seeds were surface sterilized using 1% NaClO solution for 2 min and then washed with distilled water six times. For seed germination assay, about 20 pieces of glass fiber-filter paper discs (15 mm diameter, Whatman GF/B) were placed separately on two layers of filter papers (9 cm diameter, Whatman) in a Petri dish. Five milliliters of distilled water was added to each Petri dish to wet the papers. Approximately 40–90 sterilized seeds were spread onto each glass fiber-filter paper disc. After the seeds were conditioned in the dark at 25 °C for 4 days[48], glass fiber-filter paper discs were blotted dry on filter papers (9 cm) and transferred to the wells of 24-well cell culture plates. The testing compounds were dissolved in acetone and diluted with H2O (VH2O/Vacetone = 999/1) just before use[49]. rac-GR24 and 1‰ acetone solution were used as positive and negative controls, respectively. One hundred microliters of the test solution was added to each well of the plates, and all treatments were performed in three biological repeats. The plates were sealed and incubated in the dark at 25 °C for a week. The experiments were performed at least three times. The germinated seeds were observed by using an electronic magnifier at ×20 magnification.

Data set [1] concerns ShHTL7-AtMAX2 interaction. Kind of data set: Yeast two-hybrid assay ShHTL7-AtMAX2. The class given is cell-based, Striga hermonthica. The procedure:
To construct plasmids for yeast two-hybrid assays, the CDS of ShHTL7 and AtD14 were cloned into yeast expression vector pBrigde to generate BD-ShHTL7 and BD-AtD14, and the CDS of ShMAX2, AtMAX2, SMAX1 were cloned into pGADT7 to make Gal4 DNA activation domain (AD) constructs, respectively. Primers used for yeast expression vector construction are listed in Supplementary Table 6. Yeast two-hybrid assays were performed using the Yeastmaker Yeast Transformation System 2 (Clontech). In brief, Yeast AH109 cells were co-transformed with specific bait and prey constructs and coated on selective growth medium SD/-Leu-Trp for 3 days at 30 °C, pick the positive constructs into liquid selective growth medium SD/-Leu-Trp shaking for 36 h at 30 °C. Washed yeast cells three times and diluted, made sure OD600 reached 2.5, then serial 10-fold dilutions of yeast cultures were spotted onto selective growth mediums that were supplemented with different concentrations of rac-GR24 and tested molecules, respectively. All yeast transformants were grown on a selective growth medium at 30 °C for 3 days.

Setting [2] is: 0.1 (unit uncertain) as printed.
The mark [3] stands for this setting: YLG as the substrate, read-out: Competitive AtD14 inhibitory activity IC50.
Setting [4] is: Phelipanche aegyptiaca, read-out: EC50, P. aegyptiaca seed germination.
[5] abbreviates: Phelipanche aegyptiaca, source data of Fig. 2c and Supplementary Fig. 8b, average of 3, read-out: P. aegyptiaca germination EC50 values, source data average (converted).

ShHTL7, sequence (A0A0M3PNA2 entry or part of it): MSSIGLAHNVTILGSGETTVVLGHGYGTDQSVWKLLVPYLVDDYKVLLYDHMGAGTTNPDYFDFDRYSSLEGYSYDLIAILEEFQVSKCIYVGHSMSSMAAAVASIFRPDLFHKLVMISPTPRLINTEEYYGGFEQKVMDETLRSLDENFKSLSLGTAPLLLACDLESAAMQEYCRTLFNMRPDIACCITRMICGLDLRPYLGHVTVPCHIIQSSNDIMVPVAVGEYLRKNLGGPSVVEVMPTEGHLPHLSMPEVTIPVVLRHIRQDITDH

Regarding `CC1=C[C@H](O/C=C2/C(=O)O[C@@H]3c4ccccc4C[C@H]23)OC1=O` (racemic) [rac-GR24, reference compound], the IC50 at AtD14 (source data of Fig. 4b and Supplementary Fig. 14, read-out: Competitive AtD14 inhibitory activity IC50, source data average) came out at 6540 nM. Moreover, the “hydrolysis by ShHTL7” value at ShHTL7 is reported as 51.9%. The “relative percentage of hydrolysis by ShHTL7, source data average” value (“relative percentage of hydrolysis” for short) on ShHTL7 turned out to be 51.9391%. The “S. hermonthica germination EC50 values, source data average” value in the data set with Striga hermonthica seeds is recorded as 10.4655. Also, the “germination of P. aegyptiaca seeds, source data average” value with P. aegyptiaca seeds (10 μM, Fig. 1d source data, average of 3) is recorded as 96.5229%. Further, the “P. aegyptiaca seed germination activity, source data average” value in the data set on P. aegyptiaca seeds (setting [2]) was 90.7731%; in the data set on P. aegyptiaca seeds (1 (unit uncertain) as printed) it was 95.3227%; in the data set on P. aegyptiaca seeds (10 (unit uncertain) as printed), 96.5229%. For the same compound, the “P. aegyptiaca germination(%)” value in the data set on P. aegyptiaca seeds (Supplementary Table 1, compounds tested at 10 μM, means ± SD, n = 3) was determined as 96.4%. Also, the EC50 in the data set with P. aegyptiaca seeds (in vivo, read-out: EC50, P. aegyptiaca seed germination) stood at 0.0485 nM. Also, the “P. aegyptiaca germination EC50 values, source data average” value in the data set with P. aegyptiaca seeds (source data of Fig. 2c and Supplementary Fig. 8b, average of 3) is reported as 10.3597.

As to `CC1=CC(OC(=O)N2CCN(C(=O)COc3ccc(Br)cc3C)CC2)OC1=O` (stereo not shown) [4a], in data set [1] (1 μM), the “induction of ShHTL7-AtMAX2 interaction (Y2H)” value (“induction” below) is reported as “strongly induce the interaction”. For the same compound, the half-inhibitory concentration (IC50) at AtD14 (setting [3]) was greater than 100000 nM. The “hydrolysis by ShHTL7” value on ShHTL7 was determined as 36.4%. In addition, the “relative percentage of hydrolysis” value on ShHTL7 amounted to 36.438%. The results for the EC50 with Striga hermonthica seeds, in the data set on P. aegyptiaca seeds (setting [4]) and in the data set with P. aegyptiaca seeds (setting [5]) were 0.00107 nM, roughly 0.0862 nM and 0.0628 nM, respectively.

As to `CC1=CC(OC(=O)N2CCN(C(=O)COc3ccc(Br)cc3C)CC2)CC1=O` (stereo not shown) [4g], the “induction” value in data set [1] (200 μM) was “only weak ligand-induced interactions”. The “relative percentage of hydrolysis” value on ShHTL7 turned out to be 10.7551%. Moreover, the figures for the “P. aegyptiaca seed germination activity, source data average” value in the data set with P. aegyptiaca seeds (setting [2]), with P. aegyptiaca seeds (1 (unit uncertain) as printed) and in the data set with P. aegyptiaca seeds (10 (unit uncertain) as printed) were 11.4951%, 63.9751% and 69.9023%, respectively.

Take `CC1=CC(OC(=O)N2CCN(C(=O)COc3ccc(Br)cc3C)CC2)N(C)C1=O` (stereo not shown) [4h]: the “relative percentage of hydrolysis” value on ShHTL7 amounted to 12.2513%. The “P. aegyptiaca seed germination activity, source data average” value in the data set with P. aegyptiaca seeds (setting [2]) came to 6.8801%; with P. aegyptiaca seeds (1 (unit uncertain) as printed), 41.0534%; in the data set with P. aegyptiaca seeds (10 (unit uncertain) as printed), 82.4464%.

As for `CC1=CC(CC(=O)N2CCN(C(=O)COc3ccc(Br)cc3C)CC2)OC1=O` (stereo not shown) [4i], in data set [1] (200 μM), the “induction” value is “almost no ligand-induced interactions were observed”. At ShHTL7, the “relative percentage of hydrolysis” value was -2.582%. The “P. aegyptiaca seed germination activity, source data average” value with P. aegyptiaca seeds (setting [2]) is on record as 6.798%; with P. aegyptiaca seeds (1 (unit uncertain) as printed), 17.2667%; in the data set on P. aegyptiaca seeds (10 (unit uncertain) as printed) it was 39.4856%.

Regarding `CC1=C[C@@H](OC(=O)N2CCN(C(=O)COc3ccc(Br)cc3C)CC2)OC1=O` [(R)-4a], the “induction” value in data set [1] (200 μM) is listed as “did induce the interaction”; in data set [1] (1 and 5 μM), “no ShHTL7-SMAX1 or ShHTL7-AtMAX2 interactions were detected”. For the same compound, at AtD14 (setting [3]), the IC50 was greater than 100000 nM. Besides, on ShHTL7, the “hydrolysis by ShHTL7” value stood at 3.1%. In addition, at ShHTL7, the “relative percentage of hydrolysis” value turned out to be 3.081%. Moreover, the figures for the EC50 with Striga hermonthica seeds and with P. aegyptiaca seeds (setting [5]) were 1.1 nM and 1270 nM, respectively.

As to `CC1=C[C@H](OC(=O)N2CCN(C(=O)COc3ccc(Br)cc3C)CC2)OC1=O` [(S)-4a], the “induction” value in data set [1] (1 μM) is given as “strongly induce the interaction”. The IC50 at AtD14 (setting [3]) was greater than 100000 nM. Besides, the “hydrolysis by ShHTL7” value at ShHTL7 came out at 40.1%. In addition, the “relative percentage of hydrolysis” value at ShHTL7 was found to be 40.0583%. The EC50 in the data set with P. aegyptiaca seeds (setting [4]) was 0.0339 nM; in the data set on P. aegyptiaca seeds (setting [5]), 0.021 nM. Besides, the “fold improved P. aegyptiaca seed germination activity, (S)-4a versus (R)-4a” value in the data set with P. aegyptiaca seeds (in vivo) is reported as “over 40,000 fold”.
